Experimental findings from patent US20220323406A1, “METHODS AND COMPOSITIONS FOR DIFFERENTIATING STEM CELLS” (Massachusetts Institute of Technology, priority 2019, published 2022) are described below.

Experiment [1] has as its system ENR+CD organoids (ISC to Paneth cell differentiation). As to the kind of experiment: Primary screen: basal (non-stimulated) lysozyme secretion LYZ.NS, 2.5-D 384-well ENR+CD organoid differentiation. The experiment is classed as cell-based, mouse. The source says: (§1) High-throughput screening.
Experiment [2] shares this test system. Kind of experiment: Primary screen: CCh-stimulated lysozyme secretion LYZ.S, 2.5-D 384-well ENR+CD organoid differentiation. It is filed as cell-based, mouse. The conditions noted are these: primary screen.
Description: as §1

The next experiment has as its system ENR+CD organoids. As to the kind of experiment: Primary screen: ATP (CellTiter-Glo 3D, CTG) cell number/viability, 2.5-D 384-well ENR+CD organoids.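 On all read-outs here: compounds given at plating and again on day 3 over a 6-day differentiation from ENR+CV stem-cell-enriched precursors, ATP measured on day 6, plate median as control.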 Conditions: primary screen; for Z.CTG: standard z score. Background: ATP-based viability assays read luminescence as a measure of living cells.
Where [3] appears, read: 1st dose row of the treatment (0.08 uM by row order; dose not reprinted).
Where [4] appears, read: 2nd dose row of the treatment (0.40 uM by row order; dose not reprinted).
[5] abbreviates: 3rd dose row of the treatment (2.00 uM by row order; dose not reprinted).
Setting [6] is: 4th dose row of the treatment (10.00 uM by row order; dose not reprinted).
Where [7] appears, read: primary screen, dose 0.08 uM, standard z score.
The mark [8] stands for this setting: primary screen, dose 0.40 uM, standard z score.
The mark [9] stands for this setting: primary screen, dose 2.00 uM, standard z score.
[10] abbreviates: primary screen, dose 10.00 uM, standard z score.
The mark [11] stands for this setting: primary screen; dose 0.08 uM; FC vs plate median.
Setting [12] is: primary screen; dose 0.40 uM; FC vs plate median.
Where [13] appears, read: primary screen; dose 2.00 uM; FC vs plate median.
The mark [14] stands for this setting: primary screen; dose 10.00 uM; FC vs plate median.
The mark [15] stands for this setting: dose 0.08 uM, FC vs plate median.
Setting [16] is: dose 0.40 uM, FC vs plate median.
Setting [17] is: dose 2.00 uM, FC vs plate median.
The mark [18] stands for this setting: dose 10.00 uM, FC vs plate median.

For the compound `CN1CCc2cc3c(cc2[C@H]1[C@@H]1OC(=O)c2c1ccc1c2OCO1)OCO3` [(+)-Bicuculline], the “SSMD.LYZ.NS_Rep (strictly standardized mean difference)” value in experiment [1] (primary screen, 1st dose row of the treatment (0.08 uM by row order; dose not reprinted)) came to 0.481; in experiment [1] (primary screen, 2nd dose row of the treatment (0.40 uM by row order; dose not reprinted)) it was 0.106; in experiment [1] (primary screen, 3rd dose row of the treatment (2.00 uM by row order; dose not reprinted)), 0.276; in experiment [1] (primary screen, 4th dose row of the treatment (10.00 uM by row order; dose not reprinted)), 0.175. The Dose.FC.LYZ.NS is on record as 0.092 log2 fold change in experiment [1] (primary screen, dose 0.08 uM); 0.013 log2 fold change in experiment [1] (primary screen, dose 0.40 uM); 0.031 log2 fold change in experiment [1] (primary screen, dose 2.00 uM); 0.020 log2 fold change in experiment [1] (primary screen, dose 10.00 uM). Further, the “Z.LYZ.NS (standard z score)” value in experiment [1] (primary screen, dose 0.08 uM) is 0.805; in experiment [1] (primary screen, dose 0.40 uM), 0.116; in experiment [1] (primary screen, dose 2.00 uM), 0.270; in experiment [1] (primary screen, dose 10.00 uM) it was 0.176. In addition, the “SSMD.LYZ.S_Rep (strictly standardized mean difference)” value is on record as 0.545 in experiment [2] (setting [3]), 0.216 in experiment [2] (setting [4]), −0.164 in experiment [2] (setting [5]) and 0.264 in experiment [2] (setting [6]). Moreover, the “Z.LYZ.S (standard z score)” value in experiment [2] (setting [3]) is 1.005; in experiment [2] (setting [4]), 0.221; in experiment [2] (setting [5]), −0.169; in experiment [2] (setting [6]), 0.465. Moreover, the Dose.FC.LYZ.S in experiment [2] (dose 0.08 uM) is given as 0.155 log2 fold change; in experiment [2] (dose 0.40 uM) it was 0.034 log2 fold change; in experiment [2] (dose 2.00 uM) it was −0.026 log2 fold change; in experiment [2] (dose 10.00 uM), 0.072 log2 fold change. The “SSMD.CTG.Rep (strictly standardized mean difference)” value with ENR+CD organoids (setting [3]) was 0.472; with ENR+CD organoids (setting [4]), −0.078; with ENR+CD organoids (setting [5]), −0.237; with ENR+CD organoids (setting [6]), −0.405. Further, the Dose.FC.CTG in the experiment with ENR+CD organoids (dose 0.08 uM) is 0.318 log2 fold change; in the experiment on ENR+CD organoids (dose 0.40 uM), −0.029 log2 fold change; in the experiment on ENR+CD organoids (dose 2.00 uM), −0.166 log2 fold change; with ENR+CD organoids (dose 10.00 uM) it was −0.132 log2 fold change. For the same compound, the “Z.CTG (standard z score)” value with ENR+CD organoids (dose 0.08 uM) is 0.760; in the experiment on ENR+CD organoids (dose 0.40 uM), −0.069; with ENR+CD organoids (dose 2.00 uM), −0.396; in the experiment on ENR+CD organoids (dose 10.00 uM), −0.315.
As for `O=C(Nc1cccnc1)N1CCC(Cc2cccc(Oc3ccc(C(F)(F)F)cn3)c2)CC1` [PF-3845], the Z.LYZ.NS in experiment [1] (setting [7]) is on record as 0.532; in experiment [1] (setting [8]), −0.668; in experiment [1] (setting [9]), −0.131; in experiment [1] (setting [10]), −1.137. In addition, the Dose.FC.LYZ.NS is reported as 0.061 log2 fold change in experiment [1] (setting [11]), −0.077 log2 fold change in experiment [1] (setting [12]), −0.015 log2 fold change in experiment [1] (setting [13]) and −0.131 log2 fold change in experiment [1] (setting [14]). Moreover, the Dose.FC.LYZ.S in experiment [2] (setting [15]) is listed as 0.027 log2 fold change; in experiment [2] (setting [16]), −0.061 log2 fold change; in experiment [2] (setting [17]), −0.032 log2 fold change; in experiment [2] (setting [18]), −0.195 log2 fold change. For the same compound, the Z.CTG with ENR+CD organoids (dose 0.08 uM) is on record as −0.112; in the experiment with ENR+CD organoids (dose 0.40 uM) it was 0.125; in the experiment with ENR+CD organoids (dose 2.00 uM), −0.246; in the experiment with ENR+CD organoids (dose 10.00 uM) it was −0.684. Moreover, the Dose.FC.CTG is recorded as −0.047 log2 fold change with ENR+CD organoids (setting [15]), 0.052 log2 fold change in the experiment on ENR+CD organoids (setting [16]), −0.103 log2 fold change with ENR+CD organoids (setting [17]) and −0.286 log2 fold change in the experiment on ENR+CD organoids (setting [18]).
Take `O=C1NC(=O)/C(=C/c2ccc(-c3ccc(F)cc3O)o2)S1` [AS-252424]: the Dose.FC.LYZ.NS in experiment [1] (primary screen, dose 0.08 uM) was 0.070 log2 fold change; in experiment [1] (primary screen, dose 0.40 uM), −0.042 log2 fold change; in experiment [1] (primary screen, dose 2.00 uM), −0.080 log2 fold change; in experiment [1] (primary screen, dose 10.00 uM), −0.077 log2 fold change. Further, the “Z.LYZ.NS (standard z score)” value in experiment [1] (primary screen, dose 0.08 uM) was 0.609; in experiment [1] (primary screen, dose 0.40 uM), −0.368; in experiment [1] (primary screen, dose 2.00 uM), −0.695; in experiment [1] (primary screen, dose 10.00 uM), −0.671. Besides, the Dose.FC.LYZ.S in experiment [2] (dose 0.08 uM) is recorded as 0.072 log2 fold change; in experiment [2] (dose 0.40 uM), −0.008 log2 fold change; in experiment [2] (dose 2.00 uM), −0.074 log2 fold change; in experiment [2] (dose 10.00 uM) it was −0.022 log2 fold change. The Dose.FC.CTG is reported as 0.139 log2 fold change with ENR+CD organoids (dose 0.08 uM), −0.074 log2 fold change with ENR+CD organoids (dose 0.40 uM), −0.359 log2 fold change with ENR+CD organoids (dose 2.00 uM) and −0.204 log2 fold change in the experiment with ENR+CD organoids (dose 10.00 uM). Further, the “Z.CTG (standard z score)” value is recorded as 0.333 in the experiment with ENR+CD organoids (dose 0.08 uM), −0.176 in the experiment with ENR+CD organoids (dose 0.40 uM), −0.858 with ENR+CD organoids (dose 2.00 uM) and −0.487 in the experiment with ENR+CD organoids (dose 10.00 uM).
As to `Cc1ccc(S(=O)(=O)NC(=O)NN2CC3CCCC3C2)cc1` (stereo not shown) [Gliclazide], the Dose.FC.LYZ.NS in experiment [1] (primary screen, dose 0.08 uM) is on record as 0.036 log2 fold change; in experiment [1] (primary screen, dose 0.40 uM) it was 0.032 log2 fold change; in experiment [1] (primary screen, dose 2.00 uM), 0.104 log2 fold change. The “Dose.FC.LYZ.NS (log2 fold change)” value in experiment [1] (primary screen, dose 10.00 uM) is on record as −0.035. In addition, the “Z.LYZ.NS (standard z score)” value in experiment [1] (primary screen, dose 10.00 uM) is −0.303. Also, the Z.LYZ.NS in experiment [1] (primary screen, standard z score, dose 0.08 uM) is 0.313; in experiment [1] (primary screen, standard z score, dose 0.40 uM) it was 0.278; in experiment [1] (primary screen, standard z score, dose 2.00 uM), 0.909. The Dose.FC.LYZ.S in experiment [2] (dose 0.08 uM) was 0.058 log2 fold change; in experiment [2] (dose 0.40 uM) it was 0.086 log2 fold change; in experiment [2] (dose 2.00 uM), −0.017 log2 fold change. For the same compound, the “Dose.FC.LYZ.S (log2 fold change)” value in experiment [2] (dose 10.00 uM) is listed as −0.060. Besides, the values for the Dose.FC.CTG with ENR+CD organoids (dose 0.08 uM), in the experiment on ENR+CD organoids (dose 0.40 uM) and in the experiment with ENR+CD organoids (dose 2.00 uM) were 0.162 log2 fold change, 0.054 log2 fold change and 0.008 log2 fold change, respectively. Also, the “Dose.FC.CTG (log2 fold change)” value with ENR+CD organoids (dose 10.00 uM) was −0.092.
On to `Cc1ccc(S(=O)(=O)c2ccc([N+](=O)[O-])o2)cc1` [NSC697923], for which the Z.LYZ.NS in experiment [1] (setting [7]) is 0.789; in experiment [1] (setting [8]) it was 0.441; in experiment [1] (setting [9]), −0.906; in experiment [1] (setting [10]), −1.338. For the same compound, the Dose.FC.LYZ.NS is 0.091 log2 fold change in experiment [1] (setting [11]), 0.051 log2 fold change in experiment [1] (setting [12]), −0.104 log2 fold change in experiment [1] (setting [13]) and −0.154 log2 fold change in experiment [1] (setting [14]). In addition, the Dose.FC.LYZ.S was 0.036 log2 fold change in experiment [2] (setting [15]), 0.108 log2 fold change in experiment [2] (setting [16]), −0.154 log2 fold change in experiment [2] (setting [17]) and −0.270 log2 fold change in experiment [2] (setting [18]). Besides, the Z.CTG in the experiment with ENR+CD organoids (dose 0.08 uM) is −0.123; with ENR+CD organoids (dose 0.40 uM), −0.033; in the experiment with ENR+CD organoids (dose 2.00 uM), −0.241; in the experiment on ENR+CD organoids (dose 10.00 uM), −1.867. The Dose.FC.CTG in the experiment with ENR+CD organoids (setting [15]) is given as −0.052 log2 fold change; with ENR+CD organoids (setting [16]) it was −0.014 log2 fold change; in the experiment on ENR+CD organoids (setting [17]) it was −0.101 log2 fold change; in the experiment on ENR+CD organoids (setting [18]), −0.782 log2 fold change.
